Results from patent US20230150970A1, “AMINOPYRIMIDINE DERIVATIVES AND THEIR USE AS ARYL HYDROCARBON RECEPTOR MODULATORS” (DONG-A ST CO., LTD., priority 2020, published 2023).

These molecules were tested against T1, AhR (Homo sapiens, UniProt P35869) (assay: In Vitro Assay 1: XRE-luciferase reporter assay, antagonism in human cell line (HepG2)). Settings: Assay 1: AhR-Luc Human Antagonism (IC50, nM), unmarked values: kynurenine 200 μM, 6 hours.
T1 sequence (P35869 11-848): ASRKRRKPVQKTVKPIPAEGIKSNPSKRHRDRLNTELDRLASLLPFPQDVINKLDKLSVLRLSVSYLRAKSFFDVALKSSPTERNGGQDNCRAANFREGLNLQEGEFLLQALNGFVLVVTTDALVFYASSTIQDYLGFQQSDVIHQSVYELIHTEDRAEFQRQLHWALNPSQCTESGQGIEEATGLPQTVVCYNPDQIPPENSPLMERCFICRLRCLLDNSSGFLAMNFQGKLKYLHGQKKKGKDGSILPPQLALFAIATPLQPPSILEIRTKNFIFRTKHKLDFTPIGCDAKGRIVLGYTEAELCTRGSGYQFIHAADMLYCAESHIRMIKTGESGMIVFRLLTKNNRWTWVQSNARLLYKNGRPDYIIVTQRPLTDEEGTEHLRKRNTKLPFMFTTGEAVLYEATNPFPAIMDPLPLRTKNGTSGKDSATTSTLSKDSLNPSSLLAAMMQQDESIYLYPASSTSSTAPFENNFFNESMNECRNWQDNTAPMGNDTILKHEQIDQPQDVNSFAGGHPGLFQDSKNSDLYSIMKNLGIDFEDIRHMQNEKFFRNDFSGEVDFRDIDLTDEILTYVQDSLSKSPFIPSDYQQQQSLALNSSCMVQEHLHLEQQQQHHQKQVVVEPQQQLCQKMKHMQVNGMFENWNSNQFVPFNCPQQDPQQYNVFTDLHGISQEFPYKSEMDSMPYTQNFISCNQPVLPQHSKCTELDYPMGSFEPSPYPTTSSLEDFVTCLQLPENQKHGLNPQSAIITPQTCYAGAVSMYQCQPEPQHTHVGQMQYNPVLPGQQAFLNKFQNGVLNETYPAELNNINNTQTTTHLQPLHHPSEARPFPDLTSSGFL

First: O[C@H]1CCN(c2cc(-c3ccc(Cl)cc3)nc(-c3cnc(F)c(F)c3)n2)C1 [Example 342, (S)-1-(6-(4-chlorophenyl)-2-(5,6-difluoropyridin-3-yl)pyrimidin-4-yl)pyrrolidin-3-ol]
Second: O[C@H]1CCN(c2cc(-c3ccc(Cl)cc3)nc(-c3ccc(F)nc3)n2)C1 [Example 345, (S)-1-(6-(4-chlorophenyl)-2-(6-fluoropyridin-3-yl)pyrimidin-4-yl)pyrrolidin-3-ol]
The IC50 of the first is higher: > 1000 nM for the first, 100 to 1000 nM for the second.

`O[C@@H]1CN(c2cc(-c3ccc(C(F)(F)F)cc3)nc(-c3cccnc3)n2)C[C@@H]1O` [Example 343, (3S,4R)-1-(2-(pyridin-3-yl)-6-(4-(trifluoromethyl)phenyl)pyrimidin-4-yl)pyrrolidine-3,4-diol] and `CS(=O)(=O)C1(CO)CCN(c2cc(-c3ccc(C(F)(F)F)cc3)nc(-c3cccnc3)n2)CC1` [Example 351, (4-(methylsulfonyl)-1-(2-(pyridin-3-yl)-6-(4-(trifluoromethyl)phenyl)pyrimidin-4-yl)piperidin-4-yl)methanol] cannot be ordered by IC50: > 1000 nM for the first, > 1000 nM for the second.

First: O[C@H]1CCN(c2cc(-c3ccc(Cl)cc3)nc(-c3cncnc3)n2)C1 [Example 344, (S)-1-(6-(4-chlorophenyl)-[2,5′-bipyrimidin]-4-yl)pyrrolidin-3-ol]
Second: O[C@H]1CCN(c2cc(-c3ccc(Cl)cc3)nc(-c3cccnc3F)n2)C1 [Example 346, (S)-1-(6-(4-chlorophenyl)-2-(2-fluoropyridin-3-yl)pyrimidin-4-yl)pyrrolidin-3-ol]
The IC50 of the first is lower: < 10 nM for the first, 10 to 100 nM for the second. The first is the more potent here.

`O[C@H]1CCN(c2cc(-c3ccc(Cl)cc3)nc(-c3ccccn3)n2)C1` [Example 347, (S)-1-(6-(4-chlorophenyl)-2-(pyridin-2-yl)pyrimidin-4-yl)pyrrolidin-3-ol] and `CN(C)C1CN(c2cc(-c3ccc(Cl)cc3)nc(-c3cccnc3)n2)CCC1O` (stereo not drawn) [Example 354, 1-(6-(4-chlorophenyl)-2-(pyridin-3-yl)pyrimidin-4-yl)-3-(dimethylamino)piperidin-4-ol] cannot be ordered by IC50: > 1000 nM for the first, > 1000 nM for the second.

`Cn1cc(-c2nc(-c3ccc(Cl)cc3)cc(N3CCN(S(=O)(=O)CCO)CC3)n2)cn1` [Example 348, 2-((4-(6-(4-chlorophenyl)-2-(1-methyl-1H-pyrazol-4-yl)pyrimidin-4-yl)piperazin-1-yl)sulfonyl)ethanol] and `Cn1cc(-c2nc(-c3ccc(C(F)(F)F)cc3)cc(N3CCN(S(=O)(=O)CCO)CC3)n2)cn1` [Example 353, 2-((4-(2-(1-methyl-1H-pyrazol-4-yl)-6-(4-(trifluoromethyl)phenyl)pyrimidin-4-yl)piperazin-1-yl)sulfonyl)ethanol] fall in the same range of IC50: 10 to 100 nM for the first, 10 to 100 nM for the second.

Compared with `O[C@H]1CCN(c2cc(-c3ccc(C(F)(F)F)cc3)nc(-c3cnsc3)n2)C1` [Example 350, (S)-1-(2-(isothiazol-4-yl)-6-(4-(trifluoromethyl)phenyl)pyrimidin-4-yl)pyrrolidin-3-ol], `O=S(=O)(CCO)N1CCN(c2cc(-c3ccc(C(F)(F)F)cc3)nc(-c3cnsc3)n2)CC1` [Example 370, 2-((4-(2-(isothiazol-4-yl)-6-(4-(trifluoromethyl)phenyl)pyrimidin-4-yl)piperazin-1-yl)sulfonyl)ethanol] is higher in IC50: < 10 nM for the first, 10 to 100 nM for the second.

`CN(C)C1CC(O)CN(c2cc(-c3ccc(Cl)cc3)nc(-c3cccnc3)n2)C1` (stereo not drawn) [Example 355, 1-(6-(4-chlorophenyl)-2-(pyridin-3-yl)pyrimidin-4-yl)-5-(dimethylamino)piperidin-3-ol] and `CN(C)C1CN(c2cc(-c3ccc(Cl)cc3)nc(-c3cccnc3)n2)CCC1CO` (stereo not drawn) [Example 358, (1-(6-(4-chlorophenyl)-2-(pyridin-3-yl)pyrimidin-4-yl)-3-(dimethylamino)piperidin-4-yl)methanol] fall in the same range of IC50: 100 to 1000 nM for the first, 100 to 1000 nM for the second.

First: Cn1cc(-c2nc(-c3ccc(Cl)cc3)cc(N3CCC(CO)(S(C)(=O)=O)CC3)n2)cn1 [Example 356, (1-(6-(4-chlorophenyl)-2-(1-methyl-1H-pyrazol-4-yl)pyrimidin-4-yl)-4-(methylsulfonyl)piperidin-4-yl)methanol]
Second: Cn1cc(-c2nc(-c3ccc(C(F)(F)F)cc3)cc(N3CCC(CO)(S(C)(=O)=O)CC3)n2)cn1 [Example 357, (1-(2-(1-methyl-1H-pyrazol-4-yl)-6-(4-(trifluoromethyl)phenyl)pyrimidin-4-yl)-4-(methylsulfonyl)piperidin-4-yl)methanol]
The IC50 of the first is higher: 10 to 100 nM for the first, < 10 nM for the second.

Compared with `CC1CN(S(=O)(=O)CCO)CCN1c1cc(-c2ccc(Cl)cc2)nc(-c2cccnc2)n1` (stereo not drawn) [Example 359, 2-((4-(6-(4-chlorophenyl)-2-(pyridin-3-yl)pyrimidin-4-yl)-3-methylpiperazin-1-yl)sulfonyl)ethan-1-ol], `O=S(=O)(CCCO)N1CCN(c2cc(-c3ccc(Cl)cc3)nc(-c3cccnc3)n2)CC1` [Example 362, 3-((4-(6-(4-chlorophenyl)-2-(pyridin-3-yl)pyrimidin-4-yl)piperazin-1-yl)sulfonyl)propan-1-ol] is lower in IC50: 10 to 100 nM for the first, < 10 nM for the second.

First: OCCNC1CCN(c2cc(-c3ccc(Cl)cc3)nc(-c3cccnc3)n2)CC1 [Example 360, 2-((1-(6-(4-chlorophenyl)-2-(pyridin-3-yl)pyrimidin-4-yl)piperidin-4-yl)amino)ethanol]
Second: OCC[C@H]1CN(c2cc(-c3ccc(Cl)cc3)nc(-c3cccnc3)n2)CCN1 [Example 371, (S)-2-(4-(6-(4-chlorophenyl)-2-(pyridin-3-yl)pyrimidin-4-yl)piperazin-2-yl)ethanol]
The IC50 of the first is higher: > 1000 nM for the first, 100 to 1000 nM for the second. The second is the more potent here.

`O=C(CC(O)CO)N1CCN(c2cc(-c3ccc(Cl)cc3)nc(-c3cccnc3)n2)CC1` (stereo not drawn) [Example 363, 1-(4-(6-(4-chlorophenyl)-2-(pyridin-3-yl)pyrimidin-4-yl)piperazin-1-yl)-3,4-dihydroxybutan-1-one] and `CC(O)C(O)C(=O)N1CCN(c2cc(-c3ccc(Cl)cc3)nc(-c3cccnc3)n2)CC1` (stereo not drawn) [Example 364, 1-(4-(6-(4-chlorophenyl)-2-(pyridin-3-yl)pyrimidin-4-yl)piperazin-1-yl)-2,3-dihydroxybutan-1-one] cannot be ordered by IC50: < 10 nM for the first, < 10 nM for the second.

Compared with `CC1CN(c2cc(-c3ccc(Cl)cc3)nc(-c3cccnc3)n2)CC(=O)N1` (stereo not drawn) [Example 365, 4-(6-(4-chlorophenyl)-2-(pyridin-3-yl)pyrimidin-4-yl)-6-methylpiperazin-2-one], `CN(C)CCNc1ccc(-c2cc(N3CC[C@H](O)C3)nc(-c3cccnc3)n2)cc1` [Example 374, (S)-1-(6-(4-((2-(dimethylamino)ethyl)amino)phenyl)-2-(pyridin-3-yl)pyrimidin-4-yl)pyrrolidin-3-ol] is higher in IC50: 100 to 1000 nM for the first, > 1000 nM for the second.

Compared with `O=C1COCCN1c1ccc(-c2cc(N3CC[C@H](O)C3)nc(-c3cccnc3)n2)cc1` [Example 367, (S)-4-(4-(6-(3-hydroxypyrrolidin-1-yl)-2-(pyridin-3-yl)pyrimidin-4-yl)phenyl)morpholin-3-one], `O=C1COCCN1c1ccc(-c2cc(N3CC[C@H](O)C3)nc(-c3cccnc3)n2)cn1` [Example 372, (S)-4-(5-(6-(3-hydroxypyrrolidin-1-yl)-2-(pyridin-3-yl)pyrimidin-4-yl)pyridin-2-yl)morpholin-3-one] is lower in IC50: > 1000 nM for the first, 100 to 1000 nM for the second. The second is the more potent here.

`O=S(=O)(CCO)N1CCN(c2cc(-c3ccc(Cl)cc3)nc(-c3cnsc3)n2)CC1` [Example 368, 2-((4-(6-(4-chlorophenyl)-2-(isothiazol-4-yl)pyrimidin-4-yl)piperazin-1-yl)sulfonyl)ethanol] and `O=S(=O)(CC(O)CO)N1CCN(c2cc(-c3ccc(Cl)cc3)nc(-c3cccnc3)n2)CC1` (stereo not drawn) [Example 369, 3-((4-(6-(4-chlorophenyl)-2-(pyridin-3-yl)pyrimidin-4-yl)piperazin-1-yl)sulfonyl)propane-1,2-diol] fall in the same range of IC50: 10 to 100 nM for the first, 10 to 100 nM for the second.

First: Oc1ncccc1-c1nc(-c2ccc(N3CCOCC3)c(F)c2)cc(N2CC[C@H](O)C2)n1 [Example 373, (S)-3-(4-(3-fluoro-4-morpholinophenyl)-6-(3-hydroxypyrrolidin-1-yl)pyrimidin-2-yl)pyridin-2-ol]
Second: OCCNc1ccc(-c2cc(N3CC[C@H](O)C3)nc(-c3cccnc3)n2)cc1 [Example 376, (S)-1-(6-(4-((2-hydroxyethyl)amino)phenyl)-2-(pyridin-3-yl)pyrimidin-4-yl)pyrrolidin-3-ol]
The IC50 of the first is lower: 10 to 100 nM for the first, 100 to 1000 nM for the second.

With `CN(C)CCOc1ccc(-c2cc(N3CC[C@H](O)C3)nc(-c3cccnc3)n2)cc1` [Example 375, (S)-1-(6-(4-(2-(dimethylamino)ethoxy)phenyl)-2-(pyridin-3-yl)pyrimidin-4-yl)pyrrolidin-3-ol] the IC50 was > 1000 nM.

Same assay, conditions: read-out: Assay 1: AhR-Luc Human Antagonism (IC50), values marked *: kynurenine 50 μM, 6 hours

First: (R)-(4-(6-(4-chlorophenyl)-2-(pyridin-3-yl)pyrimidin-4-yl)piperazin-2-yl)methanol [Example 79]
Second: Cis-4-((6-(4-chlorophenyl)-2-(pyridin-3-yl)pyrimidin-4-yl)amino)cyclohexan-1-ol [Example 216]
The IC50 of the first is higher: > 1000 nM for the first, 10 to 100 nM for the second.
